ChEMBL document CHEMBL3044999, “Chemical basis for the antifeedant activity of natural hydroxamic acids and related compounds” (2004)

These compounds were tested on Rhopalosiphum padi (assay: Antifeedant activity against third-instar larvae of Rhopalosiphum padi assessed as repellency index after 24 hr by feeding choice assay).
Type: functional
Design: concentration or dose not given beside the values

Row | Compound | Activity [%]
1 | O=C1COc2ccccc2N1O | 26
2 | COc1ccc2c(c1)OC(O)C(=O)N2O (configuration not stated) | 74
3 | COc1ccc2c(c1)OCC(=O)N2O | 52
4 | COc1ccc2c(c1)OC(OC)C(=O)N2O (configuration not stated) | 33.3
5 | O=C(O)c1ccc2c(c1)OCC(=O)N2O | 2.5
6 | COC1Oc2ccccc2N(O)C1=O (configuration not stated) | 0
7 | COc1ccc2c(c1)OCC(=O)N2 | 18
8 | COc1ccc2c(c1)OC(O)C(=O)N2 (configuration not stated) | 35
9 | O=C1Nc2ccccc2OC1O (configuration not stated) | 38
10 | O=C1COc2ccccc2N1 | 17
11 | O=C1C(O)Oc2ccccc2N1O (configuration not stated) | 92.3
12 | COC(=O)c1ccc2c(c1)OCC(=O)N2O [7-MeOCO-D-DIBOA] | 32
